Measured values reported in the NIST ThermoML archive (doi:10.1021/je400056z).

Experiment: xn = mol fraction of the nth substance listed
Conditions: Liquid, Vibrating tube method

CCCCCCC [heptane] + O=C=O
Conditions | mass density [kg/m3]
332.8 K, 25003 kPa, x2 = 0.0218 | 677.55
332.83 K, 6993 kPa, x2 = 0.5085 | 682.63
332.83 K, 8019 kPa, x2 = 0.5085 | 685.45
332.83 K, 9012 kPa, x2 = 0.5085 | 688
332.83 K, 10004 kPa, x2 = 0.5085 | 690.4
332.83 K, 11006 kPa, x2 = 0.5085 | 692.81
332.83 K, 12005 kPa, x2 = 0.5085 | 695.15
332.83 K, 13003 kPa, x2 = 0.5085 | 697.36
332.83 K, 13999 kPa, x2 = 0.5085 | 699.53
332.83 K, 15005 kPa, x2 = 0.5085 | 701.72
332.83 K, 16003 kPa, x2 = 0.5085 | 703.82
332.83 K, 17000 kPa, x2 = 0.5085 | 706.1
332.83 K, 18006 kPa, x2 = 0.5085 | 708.26
332.83 K, 19000 kPa, x2 = 0.5085 | 710.51
332.83 K, 20000 kPa, x2 = 0.5085 | 712.6
332.83 K, 20991 kPa, x2 = 0.5085 | 714.75
332.83 K, 22000 kPa, x2 = 0.5085 | 716.83
332.83 K, 23003 kPa, x2 = 0.5085 | 718.86
332.83 K, 24000 kPa, x2 = 0.5085 | 720.81
332.83 K, 25002 kPa, x2 = 0.5085 | 722.78
342.59 K, 5015 kPa, x2 = 0.3148 | 660.43
342.59 K, 6006 kPa, x2 = 0.3148 | 662.35
342.59 K, 7008 kPa, x2 = 0.3148 | 664.12
342.59 K, 8003 kPa, x2 = 0.3148 | 665.96
342.59 K, 9023 kPa, x2 = 0.3148 | 667.75
342.59 K, 10000 kPa, x2 = 0.3148 | 669.58
342.59 K, 11004 kPa, x2 = 0.3148 | 671.39
342.59 K, 11999 kPa, x2 = 0.7514 | 668.27
342.59 K, 12012 kPa, x2 = 0.3148 | 673.16
342.59 K, 13009 kPa, x2 = 0.3148 | 674.92
342.59 K, 13078 kPa, x2 = 0.7514 | 677.39
342.59 K, 14002 kPa, x2 = 0.7514 | 684.02
342.59 K, 14006 kPa, x2 = 0.3148 | 676.58
342.59 K, 14980 kPa, x2 = 0.7514 | 690.44
342.59 K, 15007 kPa, x2 = 0.3148 | 678.19
342.59 K, 16000 kPa, x2 = 0.3148 | 679.78
342.59 K, 16000 kPa, x2 = 0.7514 | 696.41
342.59 K, 17006 kPa, x2 = 0.7514 | 701.98
342.59 K, 17008 kPa, x2 = 0.3148 | 681.37
342.59 K, 18003 kPa, x2 = 0.7514 | 707.17
342.59 K, 18004 kPa, x2 = 0.3148 | 682.88
342.59 K, 18988 kPa, x2 = 0.7514 | 711.38
342.59 K, 19000 kPa, x2 = 0.3148 | 684.38
342.59 K, 20000 kPa, x2 = 0.3148 | 685.86
342.59 K, 20006 kPa, x2 = 0.7514 | 716.85
342.59 K, 21010 kPa, x2 = 0.7514 | 721.31
342.59 K, 21018 kPa, x2 = 0.3148 | 687.3
342.59 K, 22004 kPa, x2 = 0.7514 | 725.37
342.59 K, 22006 kPa, x2 = 0.3148 | 688.68
342.59 K, 23009 kPa, x2 = 0.7514 | 729.36
342.59 K, 23014 kPa, x2 = 0.3148 | 690.13
342.59 K, 24006 kPa, x2 = 0.7514 | 733.15
342.59 K, 24010 kPa, x2 = 0.3148 | 691.48
342.59 K, 24951 kPa, x2 = 0.7514 | 736.71
342.59 K, 25016 kPa, x2 = 0.3148 | 692.87
342.68 K, 4004 kPa, x2 = 0.0218 | 646.95
342.68 K, 5003 kPa, x2 = 0.0218 | 648.26
342.68 K, 6004 kPa, x2 = 0.0218 | 649.55
342.68 K, 7009 kPa, x2 = 0.0218 | 650.86
342.68 K, 7996 kPa, x2 = 0.0218 | 652.09
342.68 K, 9017 kPa, x2 = 0.0218 | 653.32
342.68 K, 9997 kPa, x2 = 0.0218 | 654.54
342.68 K, 11003 kPa, x2 = 0.0218 | 655.71
342.68 K, 11998 kPa, x2 = 0.0218 | 656.85
342.68 K, 13010 kPa, x2 = 0.0218 | 657.99
342.68 K, 14002 kPa, x2 = 0.0218 | 659.11
342.68 K, 15008 kPa, x2 = 0.0218 | 660.22
342.68 K, 16006 kPa, x2 = 0.0218 | 661.28
342.68 K, 17003 kPa, x2 = 0.0218 | 662.36
342.68 K, 18003 kPa, x2 = 0.0218 | 663.38
342.68 K, 19002 kPa, x2 = 0.0218 | 664.4
342.68 K, 20005 kPa, x2 = 0.0218 | 665.4
342.68 K, 21007 kPa, x2 = 0.0218 | 666.43
342.68 K, 22003 kPa, x2 = 0.0218 | 667.43
342.68 K, 23010 kPa, x2 = 0.0218 | 668.42
342.68 K, 24005 kPa, x2 = 0.0218 | 669.41
342.68 K, 25003 kPa, x2 = 0.0218 | 670.37
342.71 K, 13106 kPa, x2 = 0.9496 | 500.65
342.71 K, 13985 kPa, x2 = 0.9496 | 541.93
342.71 K, 15012 kPa, x2 = 0.9496 | 579.95
342.71 K, 16000 kPa, x2 = 0.9496 | 609.5
342.71 K, 17009 kPa, x2 = 0.9496 | 634.13
342.71 K, 17984 kPa, x2 = 0.9496 | 654.42
342.71 K, 18996 kPa, x2 = 0.9496 | 672.31
342.71 K, 19994 kPa, x2 = 0.9496 | 687.85
342.71 K, 20999 kPa, x2 = 0.9496 | 701.79
342.71 K, 22001 kPa, x2 = 0.9496 | 714.18
342.71 K, 23009 kPa, x2 = 0.9496 | 725.67
342.71 K, 23985 kPa, x2 = 0.9496 | 735.74
342.71 K, 24518 kPa, x2 = 0.9496 | 740.87
342.73 K, 8002 kPa, x2 = 0.5085 | 670.04
342.73 K, 9011 kPa, x2 = 0.5085 | 673.34
342.73 K, 10003 kPa, x2 = 0.5085 | 676.47
342.73 K, 11006 kPa, x2 = 0.5085 | 679.46
342.73 K, 12005 kPa, x2 = 0.5085 | 682.3
342.73 K, 13011 kPa, x2 = 0.5085 | 685.03
342.73 K, 14001 kPa, x2 = 0.5085 | 687.62
342.73 K, 15001 kPa, x2 = 0.5085 | 690.13
342.73 K, 16006 kPa, x2 = 0.5085 | 692.58
342.73 K, 17007 kPa, x2 = 0.5085 | 694.92
342.73 K, 17999 kPa, x2 = 0.5085 | 697.18
342.73 K, 19004 kPa, x2 = 0.5085 | 699.4
342.73 K, 20003 kPa, x2 = 0.5085 | 701.54
342.73 K, 21007 kPa, x2 = 0.5085 | 703.69
342.73 K, 22001 kPa, x2 = 0.5085 | 705.73
342.73 K, 23008 kPa, x2 = 0.5085 | 707.8
342.73 K, 23998 kPa, x2 = 0.5085 | 709.81
342.73 K, 25003 kPa, x2 = 0.5085 | 711.79
351.97 K, 7006 kPa, x2 = 0.3148 | 652.07
351.97 K, 8006 kPa, x2 = 0.3148 | 654.34
351.97 K, 9004 kPa, x2 = 0.3148 | 656.45
351.97 K, 10010 kPa, x2 = 0.3148 | 658.6
351.97 K, 11002 kPa, x2 = 0.3148 | 660.62
351.97 K, 12003 kPa, x2 = 0.3148 | 662.65
351.97 K, 13003 kPa, x2 = 0.3148 | 664.59
351.97 K, 14001 kPa, x2 = 0.3148 | 666.48
351.97 K, 15008 kPa, x2 = 0.3148 | 668.29
351.97 K, 15998 kPa, x2 = 0.3148 | 670.12
351.97 K, 17018 kPa, x2 = 0.3148 | 671.87
351.97 K, 17988 kPa, x2 = 0.3148 | 673.47
351.97 K, 19003 kPa, x2 = 0.3148 | 675.21
351.97 K, 20004 kPa, x2 = 0.3148 | 676.85
351.97 K, 21004 kPa, x2 = 0.3148 | 678.45
351.97 K, 22002 kPa, x2 = 0.3148 | 680.02
351.97 K, 22992 kPa, x2 = 0.3148 | 681.54
351.97 K, 23999 kPa, x2 = 0.3148 | 683.05
351.97 K, 25008 kPa, x2 = 0.3148 | 684.53
352.3 K, 12013 kPa, x2 = 0.7514 | 641.2
352.3 K, 13001 kPa, x2 = 0.7514 | 649.87
352.3 K, 14004 kPa, x2 = 0.7514 | 657.71
352.3 K, 15036 kPa, x2 = 0.7514 | 665.3
352.3 K, 16003 kPa, x2 = 0.7514 | 671.66
352.3 K, 17017 kPa, x2 = 0.7514 | 677.97
352.3 K, 18016 kPa, x2 = 0.7514 | 683.63
352.3 K, 18998 kPa, x2 = 0.7514 | 689.01
